Source: publication PMC9820592, “Novel Chiral Ru(II) Complexes as Potential c-myc G-quadruplex DNA Stabilizers Inducing DNA Damage to Suppress Triple-Negative Breast Cancer Progression” (International Journal of Molecular Sciences, 2022)
“And” between values parts separate entries of the source, which are not always exact repeats. Equal entries are not always repeated.

Legend:
HepG2 cells = assay: MTT assay, HepG2 cells; assay type: cell-based, human; details: 72 h, read-out: Inhibitory Effect (IC50/μM) HepG2
Procedure: (§1) Liver cancer HepG2 cells, lung cancer A549 cells, breast cancer MCF-7 and MDA-MB-231 cells, human nasopharyngeal carcinoma CNE-1 cells, and human immortalized keratinocyte HaCaT cells were seeded in 96-well plates (5 × 10^3 cells per well) and cultured at 37 °C and 5% CO2 for 24 h. Cells were treated with different concentrations of the complexes (0, 1.5625, 3.125, 6.25, 12.5, 25, 50, and 100 µM) for 72 h. After adding 20 µL MTT (5 mg/mL) solution to each well, the cells were incubated for 4 h, and then 150 µL DMSO was added to each well. The optical density of each well was detected by a microplate reader at a wavelength of 570 nm. The cell survival rate (%) = A(experimental group)/A(control group) × 100%, and the IC50 value was analyzed and calculated based on the survival rate.

HaCaT cells = assay: MTT assay, normal HaCaT keratinocytes; assay type: cell-based; details: 72 h, normal human keratinocytes, read-out: Inhibitory Effect (IC50/μM) HaCaT
Procedure: as §1

Q: With Δ-[Ru(bpy)2(3-NBEDPPZ)](ClO4)2 [Δ−3] as the substance, how does the IC50 (HepG2 cells) read?
A: 37.8 ± 0.6 µM

Q: And the IC50 (HaCaT cells)?
A: 70.9 µM and 71 µM
